Results: PubChem BioAssay (NCI)
“And” between values parts separate entries of the source, which are not always exact repeats. Identical values can stand only once.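 Protocol summary: plate cells (96-well), add compound at 5 concentrations, incubate 48 h, interpolate endpoints linearly. At the GI50, growth is halved. At the TGI there is no net growth.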

Tests used:
Assay in all cases: inhibition of tumour cell growth, NCI panel, 48 h
[1] = test system: OVCAR-5 ovarian
[2] = test system: SK-MEL-5 melanoma
[3] = test system: MDA-MB-435
[4] = test system: COLO 205 colon
[5] = test system: HCC-2998 colon
[6] = test system: KM12 colon
[7] = test system: SNB-19 CNS
[8] = test system: T-47D breast
[9] = test system: SK-OV-3 ovarian
[10] = test system: UACC-257 melanoma

Row | SMILES | GI50 [1] | TGI [1] | GI50 [2] [µM] | TGI [2] [µM] | GI50 [3] [µM] | TGI [3] [µM] | GI50 [4] | TGI [4] | GI50 [5] [µM] | TGI [5] [µM] | GI50 [6] | TGI [6] | GI50 [7] [µM] | TGI [7] [µM] | GI50 [8] | TGI [8] | GI50 [9] | TGI [9] | GI50 [10] [µM] | TGI [10] [µM]
1 | Cc1cc(S(=O)(=O)/N=C(\N)n2nc(C)c(C)c2C)c(SCc2ccccc2)cc1Cl | > 100 µM | > 100 µM | 5.65 | > 100 | 3.23 | > 100 | 74000 nM | > 100 µM | > 100 | > 100 | 9.47 µM | > 100 µM | > 100 | > 100 | 3.14 µM | > 100 µM | > 100 µM | > 100 µM | 63.8 | > 100
2 | c1cncc(-c2cc(-c3cc(-c4cccnc4)n[nH]3)[nH]n2)c1 | – | > 100 µM | – | > 100 | – | > 100 | – | > 100 µM | – | > 100 | – | > 100 µM | – | > 100 | – | > 100 µM | – | > 100 µM | – | > 100
3 | Fc1ccc(Nc2ccc3cc(OCCCN4CCOCC4)ccc3n2)cc1F | 3.02 µM | > 100 µM | 1.75 | 3.49 | 3.26 | 68 | 1960 nM | 3.84 µM | 2.22 | 4.42 | 2.06 µM | 5.48 µM | 2.78 | 7.99 | 6.68 µM | > 100 µM | 8.24 µM | > 100 µM | 2.77 | 6.88
4 | CCN(CC)CCCC(C)N/C(c1cccc(OC)c1)=c1\c(=O)[nH]n(-c2c3ccccc3nc3ccccc23)c(=O)\c1=C(/NC(C)CCCN(CC)CC)c1cccc(OC)c1 (centres undefined) | 1.79 µM | 5.21 µM | 1.7 | 3.13 | 1.45 | 2.98 | 1220 nM | 2.79 µM | 1.44 | 2.92 | 1.18 µM | 6.51 µM | 3.18 | 13 | 2.16 µM | 5.97 µM | 2.23 µM | 7.2 µM | 1.78 | 3.43
5 | CCOC(=O)c1ccc(C(O)CC(=O)OC(C)(C)C)[nH]1 (centres undefined) | 32.3 µM | > 100 µM | 27.3 | 89 | 24.1 | 62.2 | 41300 nM | > 100 µM | 33 | > 100 | 24 µM | 61.4 µM | 42.9 | > 100 | 38.4 µM | > 100 µM | 32.1 µM | > 100 µM | 40.8 | > 100
6 | COc1cc(N)ccc1Nc1c2ccccc2nc2ccccc12 | 15 µM | 29.9 µM | 7.52 | 21.5 | 17 | 33.2 | 5550 nM | 18.4 µM | 15.3 | 30.3 | 7.56 µM | 20.5 µM | 15.9 | 38.1 | 15.5 µM | 47.8 µM | 12.5 µM | 29.4 µM | 20.2 | 44
7 | O=C1CN2CCC1C/C2=C\c1ccnc2c(Cl)cccc12 (centres undefined) | > 100 µM | > 100 µM | 31 | > 100 | 75.6 | > 100 | > 100000 nM | > 100 µM | > 100 | > 100 | 56.8 µM | > 100 µM | > 100 | > 100 | 18.8 µM | > 100 µM | > 100 µM | > 100 µM | 59.7 | > 100
8 | CCCCCCCCO/N=C\c1c2c(O)c3c(O)c(C)c4c(c3c1O)C(=O)C(C)(O/C=C\C(OC)C(C)C(OC(C)=O)C(C)C(O)C(C)C(O)C(C)/C=C\C=C(\C)C(=O)N2)O4 (centres undefined) | 2.12 µM | 8.08 µM | 0.948 | 2.09 | 1.43 | 5.9 | 1350 nM | 3.59 µM | 2.05 | 7.03 | 1.67 µM | 6.36 µM | 2.42 | 8.93 | 2.06 µM | 7.45 µM | 1.86 µM | 6.68 µM | 1.34 | 4.69
9 | Cc1cc(Nc2ncc(Cl)c(Nc3ccccc3S(=O)(=O)C(C)C)n2)c(OC(C)C)cc1C1CCNCC1 | 1.14 µM and 0.714 µM and 0.644 µM | 2.38 µM and 2.13 µM and 2.15 µM | 1.4 | 2.73 | 0.944 | 2.16 | 312 nM and 332 nM | 1.39 µM and 1.28 µM | 0.991 | 2.21 | 1.49 µM and 0.911 µM | 3.11 µM and 2.1 µM | 1.73 | 3.14 | 1.47 µM and 1.57 µM | 3.27 µM and 3.17 µM | 2.02 µM and 1.67 µM | 4.39 µM and 3.03 µM | 1.24 | 2.81
10 | CC1(C)CC2=NOS3=C2C(=NO3)C1c1ccccn1 (centres undefined) | – | > 100 µM | – | 34.8 | – | 39 | – | 80.5 µM | – | > 100 | – | > 100 µM | – | > 100 | – | > 100 µM | – | > 100 µM | – | > 100
11 | CNC(=O)c1ccc(Nc2nc(OC3CCCC3)c3c(-c4ccc5nc(C)oc5c4)c[nH]c3n2)c(OC)c1 | 64.2 µM | > 100 µM | 2.12 | > 100 | > 100 | > 100 | 208 nM | > 100 µM | > 100 | > 100 | 9.47 µM | > 100 µM | 10 | > 100 | 0.907 µM | > 100 µM | – | > 100 µM | > 100 | > 100
12 | Nc1ccn(C2OC(COP(=O)(O)O)C(O)C2O)c(=O)n1 (centres undefined) | – | > 100 µM | – | > 100 | – | > 100 | – | > 100 µM | – | > 100 | – | > 100 µM | – | > 100 | – | > 100 µM | – | > 100 µM | – | > 100
13 | Cn1c(Cc2ccccc2)nc2cc3ccccc3cc21 | 42.5 µM | > 100 µM | 14.8 | 29.1 | 25.2 | 80 | 37000 nM | > 100 µM | 22.8 | 49.9 | 23.9 µM | > 100 µM | 39.3 | > 100 | 44.9 µM | > 100 µM | 49.6 µM | > 100 µM | 26.8 | 61.9
